In assay [1] the target is T1, Voltage-dependent N-type calcium channel subunit alpha-1B (Homo sapiens, UniProt Q00975). Nature of the assay: Inhibition of N-type calcium channel in IMR-32 human neuroblastoma cell. Type of assay: functional.
Target sequence in this assay (Q00975 whole entry): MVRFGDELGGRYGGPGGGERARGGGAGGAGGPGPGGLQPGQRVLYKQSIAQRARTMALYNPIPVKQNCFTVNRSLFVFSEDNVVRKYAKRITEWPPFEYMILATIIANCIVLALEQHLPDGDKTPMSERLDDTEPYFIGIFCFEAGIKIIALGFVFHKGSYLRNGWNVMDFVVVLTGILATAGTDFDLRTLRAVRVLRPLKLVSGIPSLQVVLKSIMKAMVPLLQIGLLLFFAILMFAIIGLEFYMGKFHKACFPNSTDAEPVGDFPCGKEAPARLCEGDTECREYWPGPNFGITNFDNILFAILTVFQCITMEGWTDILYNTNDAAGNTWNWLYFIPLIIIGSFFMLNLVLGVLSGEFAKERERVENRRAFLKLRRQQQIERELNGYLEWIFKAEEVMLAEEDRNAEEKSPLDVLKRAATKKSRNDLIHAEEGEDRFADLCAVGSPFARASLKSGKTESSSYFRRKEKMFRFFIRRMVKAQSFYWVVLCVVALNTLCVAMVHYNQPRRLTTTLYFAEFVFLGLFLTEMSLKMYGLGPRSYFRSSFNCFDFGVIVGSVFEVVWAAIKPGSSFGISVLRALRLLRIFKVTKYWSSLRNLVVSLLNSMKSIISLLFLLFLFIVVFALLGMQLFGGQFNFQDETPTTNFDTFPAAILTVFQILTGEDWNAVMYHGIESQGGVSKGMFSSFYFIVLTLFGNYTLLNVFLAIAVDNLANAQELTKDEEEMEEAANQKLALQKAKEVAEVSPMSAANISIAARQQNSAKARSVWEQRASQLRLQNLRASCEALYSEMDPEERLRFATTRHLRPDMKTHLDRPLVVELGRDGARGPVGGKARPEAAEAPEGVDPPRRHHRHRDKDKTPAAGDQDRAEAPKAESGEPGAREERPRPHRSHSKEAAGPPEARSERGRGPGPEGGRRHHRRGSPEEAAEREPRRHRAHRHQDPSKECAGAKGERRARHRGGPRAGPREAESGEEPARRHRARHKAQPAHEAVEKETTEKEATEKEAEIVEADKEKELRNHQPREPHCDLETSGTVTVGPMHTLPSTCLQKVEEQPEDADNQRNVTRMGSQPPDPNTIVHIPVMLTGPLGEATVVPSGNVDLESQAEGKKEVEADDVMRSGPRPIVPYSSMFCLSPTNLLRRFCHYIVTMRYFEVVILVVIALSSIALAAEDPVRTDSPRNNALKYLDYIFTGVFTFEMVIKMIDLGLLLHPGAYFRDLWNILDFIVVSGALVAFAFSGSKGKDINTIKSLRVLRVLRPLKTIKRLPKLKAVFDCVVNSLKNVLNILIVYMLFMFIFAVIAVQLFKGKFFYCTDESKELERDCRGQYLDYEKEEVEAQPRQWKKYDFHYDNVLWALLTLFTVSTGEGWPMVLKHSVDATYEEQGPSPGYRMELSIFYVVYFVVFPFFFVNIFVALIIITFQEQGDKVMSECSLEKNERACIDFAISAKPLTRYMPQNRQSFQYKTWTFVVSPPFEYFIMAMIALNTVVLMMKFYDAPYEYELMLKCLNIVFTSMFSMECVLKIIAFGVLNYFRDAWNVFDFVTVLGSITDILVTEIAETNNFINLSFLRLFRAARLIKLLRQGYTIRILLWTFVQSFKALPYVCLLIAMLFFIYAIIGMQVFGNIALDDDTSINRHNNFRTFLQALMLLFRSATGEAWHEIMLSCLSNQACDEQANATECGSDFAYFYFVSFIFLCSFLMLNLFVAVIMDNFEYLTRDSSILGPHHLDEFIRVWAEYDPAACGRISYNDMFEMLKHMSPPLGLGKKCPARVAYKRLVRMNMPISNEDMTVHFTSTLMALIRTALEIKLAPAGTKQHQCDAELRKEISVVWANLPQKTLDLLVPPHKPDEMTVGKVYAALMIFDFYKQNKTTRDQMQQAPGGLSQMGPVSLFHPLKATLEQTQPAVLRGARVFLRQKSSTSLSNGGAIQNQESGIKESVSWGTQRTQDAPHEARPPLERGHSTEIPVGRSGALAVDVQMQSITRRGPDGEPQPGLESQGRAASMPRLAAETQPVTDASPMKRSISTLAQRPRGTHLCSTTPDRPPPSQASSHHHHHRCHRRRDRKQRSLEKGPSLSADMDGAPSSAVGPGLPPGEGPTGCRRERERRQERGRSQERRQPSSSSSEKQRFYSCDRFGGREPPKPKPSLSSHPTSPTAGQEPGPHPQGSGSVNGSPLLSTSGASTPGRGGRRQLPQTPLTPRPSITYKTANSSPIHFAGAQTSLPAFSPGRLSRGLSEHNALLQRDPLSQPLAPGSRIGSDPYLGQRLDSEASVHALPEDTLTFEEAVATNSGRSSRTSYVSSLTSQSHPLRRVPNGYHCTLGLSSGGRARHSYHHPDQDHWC
The target in assay [2] is T1, Voltage-dependent N-type calcium channel subunit alpha-1B. Nature of the assay: Inhibition of N-type calcium channels in IMR-32 human neuroblastoma cells at 10 uM. Type of assay: functional, cell-based.
Target sequence in this assay (Q00975 whole entry, looked up): as the sequence (Q00975 whole entry) above
A short description of assay [3]: Blockade of K+ channels in SCG neurons at 10 uM. Type of assay: functional. The settings on record: Rattus norvegicus.
Assay [4] is described as follows: Blockade of Na+ channels in SCG neurons at 10 uM. Type of assay: functional. The settings on record: Rattus norvegicus.
For assay [5], the target named is Voltage-gated L-type calcium channel (Rattus norvegicus, UniProt P22002+Q02485+P27732). Nature of the assay: Inhibition of L-type calcium channels in GH-3 rat pituitary cells. The settings on record: pituitary gland cell. Type of assay: functional, cell-based.
The target in assay [6] is T1, Voltage-dependent N-type calcium channel subunit alpha-1B. Nature of the assay: Inhibition of N-type calcium channels in IMR-32 human neuroblastoma cells. Type of assay: functional, cell-based.
Target sequence in this assay (Q00975 whole entry): as above

As to `O=C(NCC(c1ccc(O)c(CN2CCCCCC2)c1)c1ccc(O)c(CN2CCCCCC2)c1)C(c1ccccc1)c1ccccc1`, in assay [1], the IC50 was determined as 1800 nM.
Regarding `CC(CCC(O)(c1ccccc1)c1ccccc1)(c1ccc(O)cc1)c1ccc(O)c(CN2CCCCCC2)c1` (configuration not stated), the IC50 in assay [1] is 1800 nM.
On to `CC(CCC(=O)N(Cc1ccccc1)Cc1ccccc1)(c1ccc(O)cc1)c1ccc(O)cc1`, for which the inhibition in assay [2] is -6%.
Regarding `CC(CCC(c1ccccc1)c1ccccc1)(c1ccc(O)c(CN2CCCCCC2)c1)c1ccc(O)c(CN2CCCCCC2)c1`, the inhibition at 10 µM in assay [3] worked out at 18%; in assay [4], 5%. For the same molecule, in assay [5], the IC50 turned out to be 9100 nM.
Turning to `CC(C)(c1ccc(O)c(CN2CCCCCC2)c1)c1ccc(O)c(CN2CCCCCC2)c1`, the IC50 in assay [1] turned out to be 970 nM; in assay [5], 2000 nM. In addition, the inhibition at 10 µM in assay [3] turned out to be 77%; in assay [4] it was 81%.
Take `CC(CCCN(Cc1ccccc1)Cc1ccccc1)(c1ccc(O)c(CN2CCCCCC2)c1)c1ccc(O)c(CN2CCCCCC2)c1`: the values for the inhibition at 10 µM in assay [3] and in assay [4] were 28% and 24%, respectively. In addition, the 50% inhibitory concentration (IC50) in assay [5] amounted to 4100 nM.
For `Oc1c(/C=N\C2CCCCC2)ccc2cnccc12`, the IC50 in assay [6] came out at 35000 nM.
In the case of `CC(CCC(O)(c1ccccc1)c1ccccc1)(c1ccc(O)c(CN2CCCCCC2)c1)c1ccc(O)c(CN2CCCCCC2)c1`, the inhibition at 10 µM in assay [3] turned out to be 61%; in assay [4], 78%. The IC50 in assay [5] was 900 nM.

The IC50 is the concentration that gives 50% inhibition. As a reminder, the inhibition is the relative decrease from the control value, in per cent.
